Source: patent EP0909175B1, “NON-AQUEOUS PROTIC PEPTIDE FORMULATIONS” (ALZA CORPORATION, priority 1996, dated 1998)
Blank lines part the entries; values can stand above or below the substance they belong to.

Experiments:
Format in all cases: physicochemical
[1] = Solubility studies of leuprolide acetate in PG (Example 3); settings: in PG (w/w), heated at 80°C to accelerate dissolution
Experimental: Leuprolide acetate (obtained, for example, from Mallinckrodt, St. Louis, Missouri) was weighed and dissolved using heat (80°C), swirling, agitation and/or centrifugation as needed, in vehicle (PG, PEG, MPEG, PG/H2O, PG/H2O, PEG/PG, MPEG/H2O, or PG with EDTA) at the appropriate concentration (w/w). Unless otherwise noted the term PEG means PEG 300. The term dry PG refers to PG formulations prepared in a low moisture environment (i.e., dry N2 atmosphere). Leuprolide acetate formulations in PG were prepared as described above. Formulations were heated at 80°C to accelerate the dissolution of leuprolide in PG.

[2] = Anti-gellant effect of adding polar aprotic solvents (DMSO) to non-aqueous protic solvent formulations; settings: adding polar aprotic solvents such as DMSO to non-aqueous protic solvent formulation
Text: For example, leuprolide can be induced to gel by increasing peptide concentration, introduction of salts or gentle agitation. Improving physical stability can allow for easier parenteral administration, including administration using implantable drug delivery systems.
Thus, these solvents have an anti-gellant effect.

[3] = Stability of goserelin formulations, one month at 37°C, RP-HPLC (Example 10); settings: for % CONCENTRATION: patent calls % concentration data unreliable
Experimental: (§1) Stability samples were analyzed using RP-HPLC. The area under the curve for the leuprolide peak divided by the sum of the areas under the curve of all peaks gave % purity. [It should be noted that the data for % concentration presented with the % purity data (Examples 6, 8, 9 and 10) are inconclusive. The analysis methods used to determine % concentration in these experiments were unreliable.]
Formulations of 40-45% (w/w) goserelin in either PEG 600 or PG/acetate buffer (30:70) were prepared as described above and placed in polymeric containers. The containers were stored at 37°C for one month in an incubator. The samples were analyzed using RP-HPLC to determine the chemical stability of the aged formulations.

[4] = Stability of nafarelin formulations, one month at 37°C, RP-HPLC (Example 11); settings: for % CONCENTRATION: % concentration method called unreliable
Experimental: as §1
Formulations of 15% (w/w) nafarelin in either PEG 600 or propylene glycol were prepared as described above for leuprolide and placed in polymeric containers.
The containers were stored at 37°C for one month in an incubator.
The samples were analyzed using RP-HPLC to determine the chemical stability of the aged formulations.

[5] = vehicle PEG 600, one month at 37°C

- gelation of the formulation [2]: prevents gelation
Substance: calcitonin

- % PURITY ([3]; vehicle PEG 600, 40-45% (w/w), one month at 37°C): 99.3%
- % CONCENTRATION [3, 5]: 23.6%
- % PURITY ([3]; vehicle PG/Acetate Buffer(30:70), 40-45% (w/w), one month at 37°C): 98.2%
- % CONCENTRATION ([3]; vehicle PG/Acetate Buffer(30:70), one month at 37°C): 49.7%
- gelation of the formulation [2]: prevents gelation
Substance: goserelin

- % PURITY ([4]; vehicle PEG 600, 15% (w/w), one month at 37°C): 99.4%
- % CONCENTRATION [4, 5]: 15.8%
- % PURITY ([4]; vehicle PG, 15% (w/w), one month at 37°C): 99.4%
- % CONCENTRATION ([4]; vehicle PG, one month at 37°C): 12.9%
Substance: nafarelin

Continued, substance first:

Substance: Leuprolide acetate
- % Leuprolide Acetate ([1]; 146.8 mg leuprolide acetate in 147.2 mg PG): 49.93%
- % Leuprolide Acetate ([1]; 148.6 mg leuprolide acetate in 225.7 mg PG): 39.70%
- % Leuprolide Acetate ([1]; 154 mg leuprolide acetate in 183.7 mg PG): 45.60%

Substance: leuprolide
- gelation of the formulation [2]: prevents gelation
